Assay type in all cases: cell-based
Data set [1] can be described thus: Cytotoxicity assay (MTT), PMA-differentiated THP-1 cell line. The following applies: human. As for the experimental part:
Adherent BALB/c mouse macrophage cell line J774A.1 (ATCC® TIB 67™) and suspension human acute monocytic leukemic cell line THP-1 (ATCC® TIB-202™) were purchased from DSMZ, Germany were cultured and maintained in DMEM medium (Gibco) and RPMI 1640 (Sigma), respectively, supplemented with 10% FBS, 1% penicillin-streptomycin (Sigma) and L-glutamine 200 mM (Sigma), at 37 °C, 5% CO2.
Cell lines J774A.1 and THP-1 were used to estimate CC50 of the peroxides. Cells were plated in 96-well flat bottom culture plates (VWR) at 5 × 10^5 cells/mL. The monocytic cell line THP-1 was differentiated in RPMI medium with phorbol myristate acetate (PMA) (25 ng/mL; Sigma) for 24 h, followed by a washing step with RPMI medium. Six serial concentrations of the compounds (Table 3) were added in four replicates and the plates were incubated at 37 °C ± 1 °C, 5% CO2 for 48 h. An untreated control (cells in DMEM or RPMI medium plus 0.5% DMSO as vehicle) and blank (medium alone) were plated out in quadruplicate. After the incubation period, 20 µL/well of MTT [3-(4,5-dimethylthiazol-2-yl)-2,5-diphenyltetrazolium bromide] was added to a final concentration of 5 µg/mL in 1× phosphate-buffered saline (PBS, Merck), with an additional 4 h incubation at 36 °C, as previously described. The formazan salts were resuspended in 2-propanol (Merck) and the cell viability was determined by measuring absorbance with a Synergy ™HTX Multi Mode Microplate Reader at 595 nm (Dynex Technologies). The CC50 values were calculated fitting the data as a non-linear regression with variable slope using a dose-response inhibitory model, in the GraphPad Prism V 8.0 program. Each compound was tested in three independent assays.

The subject of data set [2] is L. donovani BD14 promastigotes. The data set can be described thus: Promastigotes susceptibility assay (MTT), L. donovani. The conditions noted are these: Leishmania donovani; 48 h incubation, MTT; read-out: IC50 ± SD, L. donovani promastigotes. As for the experimental part: (§1) Promastigote forms of strains of L. infantum (MHOM/PT/1988/IMT151) and L. donovani (MHOM/BD/2006/BD14) were cultured at 24 °C ± 1 °C in M199 medium (Sigma) supplemented with 20% foetal bovine serum (FBS, Sigma) and 1% penicillin-streptomycin (Sigma). L. infantum strain belongs to IHMT, Portugal cryobank collection and the L. donovani strain was kindly provided by Dr. Katrin Kuhls, Technical University of Applied Sciences Wildau, Germany. Promastigotes used for the experiments had 7 to 12 in vitro passages in culture after isolation from mice, in order to keep virulence, and were used when the stationary phase of growth was reached (day 5 to 6), corresponding to the highest promastigotes density.
(§2) For the determination of the antileishmanial activity and IC50, promastigotes of L. infantum and L. donovani were plated in 96-well flat bottom culture plates at a concentration of 5 × 10^6 parasites/mL and incubated with six serial concentrations of each compound (Table 3), in four replicates, including the control drugs, amphotericin B, miltefosine and pentamidine. One untreated control (parasites with M199 medium plus 0.5% DMSO as vehicle solution) and one blank (M199 medium alone) were also plated out in quadruplicate. After 48 h incubation at 24 °C ± 1 °C, the inhibitory activity of the compounds was evaluated using the MTT, as previously described, with an additional 4 h incubation at 36 °C. Results were expressed in terms of percentage of parasite viability relative to nontreated control and IC50 was calculated fitting the data as a non-linear regression with variable slope using a dose-response inhibitory model, in the GraphPad Prism V 8.0 program. Each compound was tested in three independent assays. […]

The subject of data set [3] is L. infantum IMT151 intracellular amastigotes. Briefly: Intracellular amastigotes assay in J774A.1 macrophages, L. infantum. The conditions noted are these: Leishmania infantum, J774.A1; 48 h incubation, J774A.1 host cells; read-out: IC50 ± SD, L. infantum intracellular amastigotes. As for the experimental part:
(§3) The intracellular assay using the macrophage J774A.1 cell line was performed with the compounds that presented best SI on the promastigote’s susceptibility assay. J774A.1 cells were adjusted to 2.5 × 10^5 cells/mL in supplemented DMEM medium. 200 μL/well of the cell suspension was placed in 16 well Lab Tek culture glass slides (Nunc), and incubated at 37 °C ± 1 °C, 5% CO2, for 3 h, to enable the cells to adhere to the slides. After a washing step with DMEM to discard non-attached cells, the cells were infected with 2.5 × 10^6 cells/mL promastigotes in a 10:1 parasite-host cell proportion for 24 h. Compounds and control drugs were added in two replicates of six serial concentrations (Table 3). As negative control, macrophages were cultivated in medium and DMSO, as vehicle solution (0.5% v/v). Slides were incubated for 48 h at the same temperature. After a washing step with 1× PBS (Sigma), slides were fixed and stained, and the infection index was calculated according to [34] by counting the number of intracellular amastigotes per 100 macrophages, in treated and untreated cells. Two independent experiments were performed to determine the amastigotes IC50 of each compound, which was calculated by fitting the data as a non-linear regression with variable slope using a dose-response inhibitory model, in the GraphPad Prism V 8.0 program. SI was determined as described above.

The subject of data set [4] is L. infantum IMT151 promastigotes. Briefly: Promastigotes susceptibility assay (MTT), L. infantum. The following applies: Leishmania infantum; 48 h incubation, MTT; read-out: IC50 ± SD, L. infantum promastigotes. As for the experimental part:
as §1, §2

Data set [5] has as its system L. donovani BD14 intracellular amastigotes. Briefly: Intracellular amastigotes assay in J774A.1 macrophages, L. donovani. The following applies: Leishmania donovani, J774.A1; 48 h incubation, J774A.1 host cells; read-out: IC50 ± SD, L. donovani intracellular amastigotes. As for the experimental part: as §3

Where two headings read alike, the source gives them in different places.

Consider two compounds from paper PMC9024893, “1,2,4-Trioxolane and 1,2,4,5-Tetraoxane Endoperoxides against Old-World Leishmania Parasites: In Vitro Activity and Mode of Action” (Pharmaceuticals, 2022).

Take `C[C@@H]1[C@H](O)[C@@H](C)/C=C/C=C/C=C/C=C/C=C/C=C/C=C/[C@H](O[C@@H]2O[C@H](C)[C@@H](O)[C@H](N)[C@@H]2O)C[C@@H]2O[C@](O)(C[C@@H](O)C[C@@H](O)[C@H](O)CC[C@@H](O)C[C@@H](O)CC(=O)O[C@H]1C)C[C@H](O)[C@H]2C(=O)O` [AmB, amphotericin B, reference compound]: in data set [1], the CC50 at 48 h was 23.2 ± 3 µM. Besides, the IC50 turned out to be 0.3 µM in data set [2], 0.3 ± 0.1 µM in data set [3], 0.2 µM in data set [4] and 0.1 µM in data set [5].

`CCOC(=O)C1CCC2(CC1)OOC1(OO2)C2CC3CC(C2)CC1C3` (stereo not shown) [LC138]: the CC50 at 48 h in data set [1] (PMA-differentiated THP-1 cells, 48 h incubation, MTT, read-out: CC50 ± SD, THP-1 Cell Line) was determined as 2839 ± 15 µM. The IC50 in data set [2] amounted to 240 ± 34.8 µM; in data set [3], 23.9 ± 2.7 µM; in data set [4], 125 ± 1.6 µM; in data set [5] it was 426 ± 25.5 µM.
